From patent publication US11318182B1, “Plant extract for skin infections” (priority 2021, dated 2022)

How the values were obtained:
Assay type in all cases: cell-based
Conditions in all cases: plant extract 29 μg/ml
[1] = system: Bacillus cereus; assay: Growth inhibition zone on nutrient agar
Experimental: (§1) In the preferred embodiment, grinded garlic, ginger, papaya seed, clover bud, tamarind and the coconut oil components are extracted by 95% ethanol and kept in dark four days at room temperature. The extracted homogenous texture is filtered through Whatman filter paper no. 1 by using Thermo Scientific Vacuum USA. The filtered extract pH is adjusted to 5.6. A drop of Lavender is added to the final concentration and the extract is refrigerated in sealed, amber-colored bottles at 4° C. after the concentration is determined. […], Penicillium notatum, and Aspergillus niger used as fungal species. Known isolates of Escherichia coli, Bacillus serous and Staphylococcus aureus used as bacterial species. Sabouraud dextrose agar (SDA) medium and Nutrient agar plates (NAP) used to confirm in vitro inhibition of the fungus and bacteria in 24, 48 and 72 hours at room temperature and 37° C. respectively. The antimicrobial activity of plant-extract specified by the formation of an inhibition zone is measured by using Vernier calipers. Also, 28 individuals evaluated after using the mixed plant-extract within two weeks trial controlling fungal and bacterial infections of the skin. […] Staphylococcus aureus, Bacillus cereus and Escherichia coli grown on nutrient agar (NA). Aspergillus niger, Penicillium notatum and […] tested fungal species grown on Sabouraud dextrose agar (SDA). […] The SDA and NA plates were filled with 20 ml of media and solidified in 24 hours at 37° C. incubator before inoculation of the of the microorganisms and the products to be tested.

[2] = system: Escherichia coli; assay: Growth inhibition zone on nutrient agar
Experimental: as §1

[3] = system: Staphylococcus aureus; assay: Growth inhibition zone on nutrient agar
Experimental: as §1

[4] = system: Aspergillus niger; assay: Growth inhibition zone on Sabouraud dextrose agar
Experimental: as §1

[5] = system: Penicillium notatum; assay: Growth inhibition zone on Sabouraud dextrose agar
Experimental: as §1

[6] = system: Serratia marcescens; assay: Growth inhibition zone on Sabouraud dextrose agar
Experimental: as §1

Row | Compound | Growth inhibition by mm, B. cereus [1] [mm] | Growth inhibition by mm, E. coli [2] [mm] | Growth inhibition by mm, S. Aureus [3] [mm] | Growth inhibition by mm, A. niger [4] [mm] | Growth inhibition by mm, P. notatum [5] [mm] | Growth inhibition by mm, S. marcescens [6] [mm]
1 | Clc1ccccc1C(c1ccccc1)(c1ccccc1)n1ccnc1 [Clotrimazole 1%, clotrimazole] | 1 | 2.2 | 1.2 | 1.8 | 2.1 | 1.8
2 | CN(C)[C@@H]1C(O)=C(C(N)=O)C(=O)[C@@]2(O)C(O)=C3C(=O)c4c(O)cccc4[C@@](C)(O)[C@H]3C[C@@H]12 [Tetracycline] | 1.3 | 1.2 | 1.3 | 0.8 | 0.7 | 0.7
3 | C=CCCCCCCCCC(=O)O [Undecycleric add 25%, undecylenic acid] | 1.1 | 1.2 | 1.1 | 1.9 | 1.6 | 1.7
4 | Penicillin | 1.9 | 2.5 | 1.9 | 1.7 | 1.4 | 1.6
